In patent US8802597B2, “Herbicidal pyrimidines” (E I du Pont de Nemours and Company, priority 2003, dated 2014):
Like-named read-outs stand apart in the source and are kept apart here.

Columns and labels:
Experiment in all cases: Test C pre/postemergence
Assay type in all cases: in vivo
[1] = system: velvetleaf (Abutilon theophrasti); conditions: Abutilon theophrasti; for pest or weed control at 62 g/ha: 62 g ai/ha; for pest or weed control at 125 g/ha: 125 g ai/ha; for pest or weed control at 250 g/ha: 250 g ai/ha; for pest or weed control at 500 g/ha: 500 g ai/ha
Method in brief: (§1)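 Test compounds, formulated in a non-phytotoxic solvent mix with surfactant, were applied to freshly planted seeds and, at the same time, to emerged plants at 1- to 4-leaf stage (2 to 18 cm). After 12 to 14 days in the greenhouse, response was scored visually versus controls, 0 = no effect, 100 = complete control.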

[2] = system: lambsquarters (Chenopodium album); conditions: Chenopodium album; for pest or weed control at 62 g/ha: 62 g ai/ha; for pest or weed control at 125 g/ha: 125 g ai/ha; for pest or weed control at 250 g/ha: 250 g ai/ha; for pest or weed control at 500 g/ha: 500 g ai/ha
Method in brief: as §1

[3] = system: cocklebur (Xanthium strumarium); conditions: Xanthium strumarium; for pest or weed control at 62 g/ha: 62 g ai/ha; for pest or weed control at 125 g/ha: 125 g ai/ha; for pest or weed control at 250 g/ha: 250 g ai/ha; for pest or weed control at 500 g/ha: 500 g ai/ha
Method in brief: as §1

[4] = system: crabgrass (Digitaria sanguinalis); conditions: Digitaria sanguinalis; for pest or weed control at 62 g/ha: 62 g ai/ha; for pest or weed control at 125 g/ha: 125 g ai/ha; for pest or weed control at 250 g/ha: 250 g ai/ha; for pest or weed control at 500 g/ha: 500 g ai/ha
Method in brief: as §1

[5] = system: common (oilseed) sunflower (Helianthus annuus); conditions: Helianthus annuus, pre-emergence, Preemergence, read-out: Plant response rating, Sunflower
Method in brief: as §1

[6] = system: Surinam grass (Brachiaria decumbens); conditions: Urochloa decumbens; for pest or weed control at 125 g/ha: 125 g ai/ha; for pest or weed control at 500 g/ha: 500 g ai/ha; for pest or weed control at 62 g/ha: 62 g ai/ha; for pest or weed control at 250 g/ha: 250 g ai/ha
Method in brief: as §1

[7] = system: yellow nutsedge (Cyperus esculentus); conditions: Cyperus, post-emergence, Postemergence, scale 0 to 100 (0 no effect, 100 complete control), read-out: Nutsedge, Yellow plant response rating
Method in brief: as §1

[8] = post-emergence, Postemergence, scale 0 to 100 (0 no effect, 100 complete control), read-out: Velvetleaf plant response rating
[9] = post-emergence, Postemergence, scale 0 to 100, read-out: Plant response rating, Velvetleaf
[10] = pre-emergence, Preemergence, scale 0 to 100, read-out: Plant response rating, Velvetleaf
[11] = post-emergence, Postemergence, scale 0 to 100 (0 no effect, 100 complete control), read-out: Lambsquarters plant response rating
[12] = post-emergence, Postemergence, scale 0 to 100, read-out: Plant response rating, Lambsquarters
[13] = pre-emergence, Preemergence, scale 0 to 100, read-out: Plant response rating, Lambsquarters
[14] = post-emergence, Postemergence, scale 0 to 100 (0 no effect, 100 complete control), read-out: Cocklebur plant response rating
[15] = post-emergence, Postemergence, scale 0 to 100, read-out: Plant response rating, Cocklebur
[16] = pre-emergence, Preemergence, scale 0 to 100, read-out: Plant response rating, Cocklebur
[17] = post-emergence, Postemergence, scale 0 to 100 (0 no effect, 100 complete control), read-out: Crabgrass plant response rating
[18] = post-emergence, Postemergence, scale 0 to 100, read-out: Plant response rating, Crabgrass
[19] = pre-emergence, Preemergence, scale 0 to 100, read-out: Plant response rating, Crabgrass
[20] = post-emergence, Postemergence, scale 0 to 100 (0 no effect, 100 complete control), read-out: Surinam Grass plant response rating
[21] = post-emergence, Postemergence, scale 0 to 100, read-out: Plant response rating, Surinam Grass
[22] = pre-emergence, Preemergence, scale 0 to 100, read-out: Plant response rating, Surinam Grass

## CNc1nc(C2CC2)nc(C(=O)OC)c1Br [Compound 5]
[1]; [8]
  pest or weed control at 62 g/ha: 55%
  pest or weed control at 125 g/ha: 90%
[1]; [9]
  pest or weed control at 250 g/ha: 90%
  pest or weed control at 500 g/ha: 95%
[1]; pre-emergence, Preemergence, scale 0 to 100, 0 no effect, 100 complete control, read-out: Plant response rating, Velvetleaf
  pest or weed control at 62 g/ha: 85%
[1]; [10]
  pest or weed control at 125 g/ha: 85%
  pest or weed control at 250 g/ha: 90%
  pest or weed control at 500 g/ha: 90%
[2]; [11]
  pest or weed control at 62 g/ha: 95%
  pest or weed control at 125 g/ha: 100%
[2]; [12]
  pest or weed control at 250 g/ha: 100%
  pest or weed control at 500 g/ha: 100%
[2]; pre-emergence, Preemergence, scale 0 to 100, 0 no effect, 100 complete control, read-out: Plant response rating, Lambsquarters
  pest or weed control at 62 g/ha: 95%
[2]; [13]
  pest or weed control at 125 g/ha: 95%
  pest or weed control at 250 g/ha: 100%
  pest or weed control at 500 g/ha: 100%
[3]; [14]
  pest or weed control at 62 g/ha: 80%
  pest or weed control at 125 g/ha: 95%
[3]; [15]
  pest or weed control at 250 g/ha: 100%
  pest or weed control at 500 g/ha: 100%
[3]; pre-emergence, Preemergence, scale 0 to 100, 0 no effect, 100 complete control, read-out: Plant response rating, Cocklebur
  pest or weed control at 62 g/ha: 10%
[3]; [16]
  pest or weed control at 125 g/ha: 90%
  pest or weed control at 250 g/ha: 100%
  pest or weed control at 500 g/ha: 100%
[4]; [17]
  pest or weed control at 62 g/ha: 40%
  pest or weed control at 125 g/ha: 50%
[4]; [18]
  pest or weed control at 250 g/ha: 70%
  pest or weed control at 500 g/ha: 80%
[4]; pre-emergence, Preemergence, scale 0 to 100, 0 no effect, 100 complete control, read-out: Plant response rating, Crabgrass
  pest or weed control at 62 g/ha: 0%
[4]; [19]
  pest or weed control at 125 g/ha: 0%
  pest or weed control at 250 g/ha: 20%
  pest or weed control at 500 g/ha: 60%
[5]; 62 g ai/ha, scale 0 to 100, 0 no effect, 100 complete control
  pest or weed control at 62 g/ha: 60%
[5]; 125 g ai/ha, scale 0 to 100
  pest or weed control at 125 g/ha: 90%
[5]; 250 g ai/ha, scale 0 to 100
  pest or weed control at 250 g/ha: 100%
[5]; 500 g ai/ha, scale 0 to 100
  pest or weed control at 500 g/ha: 100%
[6]; [20]
  pest or weed control at 125 g/ha: 20%
  pest or weed control at 62 g/ha: 0%
[6]; [21]
  pest or weed control at 500 g/ha: 70%
  pest or weed control at 250 g/ha: 30%
[6]; pre-emergence, Preemergence, scale 0 to 100, 0 no effect, 100 complete control, read-out: Plant response rating, Surinam Grass
  pest or weed control at 62 g/ha: 0%
[6]; [22]
  pest or weed control at 125 g/ha: 0%
  pest or weed control at 250 g/ha: 0%
  pest or weed control at 500 g/ha: 0%
[7]; 62 g ai/ha
  pest or weed control at 62 g/ha: 0%
[7]; 125 g ai/ha
  pest or weed control at 125 g/ha: 0%
